Results taken from patent publication US8236301B2, “Lumican proteoglycan in the diagnosis and treatment of atherosclerosis” (The General Hospital Corporation, priority 2005, dated 2012).

Test system: human umbilical vein endothelial cells (HUVECs)
Details: confluent HUVECs, single bolus of physiologic levels of H2O2, 5 hr
Experimental: HUVECs were treated with the indicated concentrations of H2O2 for 5 hours. The cells were harvested and the proteoglycans isolated and analyzed by Western blotting for lumican and biglycan.
Since lumican proteoglycan is deposited at enhanced levels in atherosclerosis-prone arteries, it is possible that lumican proteoglycan is generated by cultured human umbilical vein endothelial cells (HUVECs). The production of lumican proteoglycan by cultured human umbilical vein endothelial cells (HUVECs) was examined in vitro. Confluent HUVECs in complete media with serum and growth supplements were treated with a single bolus addition of varying concentrations of H2O2. After 5 hr the cells were washed and harvested as described previously (Kattapuram et al. (2005) Journal of Biological Chemnistry 280, 15340-15347). The proteoglycans were then extracted, isolated and analyzed by immunoblotting for lumican and biglycan.

OO [H2O2, Hydrogen Peroxide]
upregulation of biglycan (immunoblot): no upregulation | upregulation of Lumican-PG100 (immunoblot) (vs resting conditions): substantial upregulation
